US6794148B2, “High speed, automated, continuous flow, multi-dimensional molecular selection and analysis” (PerSeptive Biosystems, Inc., priority 1995, dated 2004)
No end group written: not given here.

What was measured:
IgG [1] = experiment: IgG purification from human serum on POROS-immobilized peptide column; assay type: binding; details: for IgG binding capacity of POROS-peptide column: peptide immobilized on POROS AL via N-terminal end
Experimental: 1 g POROS™ AL (aldehyde) was suspended in 10 mM PBS (pH 7.5) containing 100 mg sodium cyanoborohydride (NaCNBH3). 5 to 20 mg of each of the peptides selected by various screening procedures was added to the resin and the mixture was shaken overnight at room temperature. 100 mg sodium borohydride (NaBH4) was then added and the mixture was shaken for another 2 hrs. The beads were then washed with PBS and packed into 4.6 mm D×100 mm L column using POROS™ Self Pack® device.
100 μl of 1:10 diluted serum was injected onto the peptide column which was equilibrated with 20 mM tris (pH 8.0) at 5 ml/min. The bound proteins were eluted with 0-1 M NaCl gradient in 15 CVs. Fractions were collected manually and concentrated by Speed Vac for subsequent analysis by SDS-polyacrylamide gel electrophoresis.
The […] (SEQ ID NO: 8) peptide with heme group was immobilized on POROS™AL® (aldehyde) via the N-terminal end. This POROS™-peptide conjugate was used to separate IgG from serum at pH 8 under a 0-1 M NaCl gradient. […] To determine the nature of interaction, the purification profile of IgG separated on the POROS™-peptide column was compared with the IgG purified on standard ion exchange columns such as POROS™-CM and POROS™ HQ. […] The effect of the varying loading densities of peptide (from 10 mg/g POROS™ to 100 mg/g POROS™) on specificity and capacity for IgG binding was also investigated. The specificity of the peptide for IgG binding was also investigated. […] At low loading density (10 mg/g POROS™) IgG bound primarily via ionic interaction requiring elution of bound IgG with salt gradient. At higher loading density ([…]) IgG bound strongly and eluted with acid buffer. The binding capacity varied from 1-2 mg/ml column volume at lower ligand density to 30 mg/ml column volume at higher ligand densities.
A simplified analog of the heme peptide ([…]) (SEQ ID NO: 9) was synthesized and immobilized on POROS™ AL via the N-terminal end. […] The bound IgG was eluted from the GAQGHTVBK (SEQ ID NO: 9)-POROS™ column with 100 mM NaCl. The IgG binding capacity was determined to be 5 mg/ml column volume. Loading densities from 20 mg/g to 40 mg peptide /g POROS™ were evaluated. At these ligand densities, the specificity of IgG binding was not affected, but the capacity was reduced.

HSA = biological target: T1, HSA (Homo sapiens, UniProt P02768); experiment: HSA binding to heme peptide POROS; details: only under very hydrophobic conditions (200 mM sodium sulphate, pH 7 buffer)
T1 construct: purchased Sigma Chemical Co (St. Louis, Mo.)

[2] = test system: mouse IgG (whole fragment); experiment: Solution phase and solid phase peptide screening of natural peptide library; assay type: binding
Experimental: (§1) 5 mg each of either mouse IgG (whole) or the Fc fragment was incubated with 20 mg of natural library and protein A and G digests, respectively. The mixture was dissolved in 1 ml of a mixture of 25 mM sodium phosphate buffer and 0.15 M NaCl (pH 7) overnight at 4° C. After incubation, several chromatographic runs through the Superdex SEC and RP columns were conducted with 200 of the protein and peptide mixture injected through the Superdex column during each run. The flow rate for the Superdex column was 0.75 m/min with the 25 mM sodium phosphate buffer and 0.15 M NaCl (pH 7) mixture. The early eluting protein peak was collected directly onto the RP column. The remaining portion of the peak was washed off the SEC. The mouse IgG (whole) or Fc fragment and its associated peptides were then eluted from the RP column under the following conditions:
(§2) The IgG activated POROS™ was packed into 4.6 mm D×100 mm L PEEK columns using Self Pack® assembly on BioCAD™ at 20 ml/min flow rate. 5 to 50 mgs peptide library (natural peptide library or polyclonal antibody digest) dissolved in 0.5 to 2.5 ml of 10 mM PBS (pH 7.5) was injected onto the column at flow rate of 0.5 ml/min. After wash with 5 CVs of PBS, the bound portion was eluted with 10 mM HCl and collected manually. […] The fractions corresponding to the bound peptides were concentrated in Speed Vac and analyzed by MALDI-TOF and Edman sequencing. […]

IgG [3] = experiment: IgG purification from human serum on POROS-immobilized peptide column; assay type: binding; details: immobilized via carboxyl groups of heme and free C-terminal end
IgG [4] = experiment: Solid phase screening of polyclonal antibody digests on immobilized IgG column; assay type: binding; details: tryptic digests of anti-IgG (Fc specific) polyclonal antibodies
Experimental: […] POROS™ EP (epoxy) was suspended in 5 ml 0.1 M phosphate buffer (pH 9) containing 20 mg IgG. After the beads were well suspended, 4 ml 0.1 M phosphate buffer (pH 9) containing 2 M NA2SO4 were added to the mixture and it was shaken overnight at room temperature. The beads were then washed with 10 mM PBS (pH 7.5) and stored in the refrigerator before they were packed into columns.
as §2, with “manually. The fraction was concentrated down to approximately 500 μl and at least 80% of it was injected onto a 4.6 mm D×250 mm L Vydac C18 column at 1 m/min. The RP column was equilibrated with 0.1% TFA/DIW and peptides were eluted with 15 CVs of a 0-40% acetonitrile gradient at flow rate of 1 ml/min.” for “manually.”
Polyclonal antibodies are an interesting and logical source of peptides since they have specific antigen binding sites. […] The amino acid sequence was determined to be […] […]

mouse IgG, Fc fragment = experiment: Binding of mouse IgG Fc fragment on POROS 19-mer peptide column; details: peptide synthesized directly on POROS NH2 resin via C-terminal end; eluted with acid buffer
Experimental: (§3) The 19-mer peptide ([…]) (SEQ ID NO: 7) selected from protein A and G digests was directly synthesized on 20 μm amine-functionalized™ particles by standard FMOC chemistry. About 700 mg of resin was dry packed into a 4.6 mm D×50 mm L PEEK column equipped with 2 μm frits. The packed column was attached with appropriate adapters to a PerSeptive Biosystems 9050 plus continuous flow peptide synthesizer. Upon completion of synthesis, the resin was dried and deprotected using 95% TFA/5% triisopropylsilane for 24 hrs. The final peptide-support conjugate was packed using POROS™ Self Pack® column packing device at flow rate 10 ml/min onto 4.6 mm D×50 mm L column for evaluation as affinity supports.
(§4) The 19-mer peptide column (4.6 mm D×50 mm L) was equilibrated with 20 CVs of equilibration buffer, 20 mM tris (pH 7). About 500 μl of 1 mg/ml of each of the following samples was injected onto the 19-mer peptide column (4.6 mm D×50 mm L): 1) pure IgGs from either human or mouse or chicken, 2) IgA (whole molecule), 3) human serum, 4) fetal bovine serum (1:10 dilution), or 5) 500 μl of 1 mg/ml mouse […]. After injection, the column was washed with 20 CVs of a mixture of 20 mM tris buffer and 0.4 M NaCl (pH 7). The remaining bound proteins were eluted with 20 CVs of 12 mM HCl. […] The bound fractions were collected and analyzed by SDS-Polyacrylamide gel electrophoresis.

IgG [5] = experiment: Immunoglobulin class and species selectivity of POROS 19-mer peptide column; assay type: binding
Experimental: as §3, §4

mouse IgG (Fc fragment) = experiment: Solution phase peptide screening (SEC - reversed phase) of protein A and G digests; assay type: binding; details: native and denatured recombinant protein A and G digests
Experimental: as §1
Fractions corresponding to bound peptide peaks were lyophilized and redissolved in 1001 of 0.1% TFA/DIW for mass spec analysis by MALDI-TOF.

CAQCHTVEK (cysteine pairing not given here; also: heme group) [tryptic digest peptide of cytochrome c with heme group, immobilized on POROS AL]
selectivity for IgG from serum versus ion exchange columns (IgG [1]; compared with POROS-CM and POROS HQ, similar conditions): higher selectivity for IgG from serum than either of the ion exchange columns
IgG binding capacity at higher ligand densities (IgG [1]; higher loading density (100 mg/mg)): 30 mg/ml column volume
IgG binding capacity at lower ligand density (IgG [1]; low loading density (10 mg/g POROS)): 1-2 mg/ml column volume
purity of IgG purified from serum (IgG [1]; pH 8, 0-1 M NaCl gradient, versus POROS-Protein A): comparable purity to that of IgG separated on POROS™-Protein A column
IgG binding capacity of POROS-peptide column (IgG [1]; pH 8): 10 mg/ml column volume
binding to HSA (HSA): bound very weakly
selected as binder in library screening [2]: yielded one peptide
IgG binding when immobilized via carboxyl groups (IgG [3]): no IgG binding

GAQGHTVEK (OTHER INFORMATION: Description of Artificial Sequence: synthetic peptide) [simplified analog of the heme peptide; also isolated from polyclonal antibody digests]
specificity of IgG binding from human serum (IgG [1]; pH 8, immobilized on POROS via N-terminal end): bound specifically
IgG binding capacity of POROS-peptide column (IgG [1]; pH 8): 5 mg/ml column volume
selectivity of peptide isolated from denatured antibody digest (IgG [4]): selective for IgG

TVTEKPEVIDASELTPAVT (also: synthesized on POROS) [19-mer peptide selected from protein A and G digests, synthesized on POROS]
binding of mouse IgG Fc fragment (capacity and selectivity) (mouse IgG, Fc fragment): low capacity but high selectivity
selectivity IgG versus IgA (IgG [5]; POROS 19-mer peptide column): more selective for IgG than IgA
species selectivity of IgG binding (IgG [5]; human versus rabbit, goat or mouse IgG): Human IgG bound more selectively
selected as binder in solution phase screening (mouse IgG (Fc fragment)): identified
